For data set [1], the system named is normal photodamaged dermal or epidermal tissue. The settings on record: topical application; cited from earlier work.
Data set [2] relates to aging skin. As to the kind of experiment: twelve-week clinical study, combined contemporaneous treatment with IRM and retinoid (2a). Type of data set: in vivo, human. Particulars: contemporaneous application.
Procedure: On Day 0, each enrolled subject is supplied with a package of individually coded tubes of cream, labeled “Tube A” and “Tube B”. Tube A contains one of two formulations: 5% IRM+vehicle (carrier); or vehicle only (placebo); Tube B contains either 0.025% tretinoin in a cream formulation or vehicle only (placebo). The subjects apply Tube A to the arms and face, wait 5 minutes, and then apply the contents of Tube B over the same area. Labels are randomly assigned with records separately maintained identifying the formulation. Codes are not known to either the subjects or the investigator until the study is completed and the data analyzed. All subjects receive Cetaphil cleanser, moisturizer and sunscreen for daily use throughout the study. The first application of Tube A and B is done in the presence of the study coordinator to ensure proper application. Written directions are given to the subjects to apply the products at the same time of day every day and to apply Tube B five minutes after applying Tube A.
Study participants apply the study creams once daily for 12 weeks. […]
Skin firmness (elasticity) is assessed using a ballistometer. Skin retention of water/skin moisture content is assessed via impedance measurements on the cheek area of subjects using a Novameter. Transepidermal water loss is measured using a Tewameter. Sebum secretion is measured using a Sebometer and Sebutape.
For data set [3], the system named is aging skin. The experiment in a line: clinical study, combined day/night treatment with IRM and retinoid (2b). In kind it is in vivo, human. The settings on record: day/night application. As to the method:
The above study is repeated except that the topical composition containing the IRM is applied in the morning and a topical composition containing tretinoin is applied at night. Standard 2-4 mm skin punch biopsies are taken at pre-identified sites (on subject's arms) on Day 0 and at the Week 12 visit. Subjects apply the assigned formulation in the presence of the investigator and return for a biopsy within 4-6 hours.

The test system of data set [4] is PBMC and pDC. As to the kind of experiment: cytokine production by PBMC and plasmacytoid dendritic cells (RT-PCR, ELISA). Type of data set: cell-based, human. Particulars: added at 0.02% to 1% at the same time as TLR-7 agonists. In general terms: An ELISA detects its analyte on a solid surface through an enzyme-linked reagent.
Procedure: Cytokine production by plasmacytoid dendritic cells is measured using real-time RT-PCR on RNA collected from peripheral blood mononuclear cells (PBMC) including pDC (plasmacytoid dendritic cells).
An IRM (TLR-7 agonist) as described in one of the four embodiments of the present invention is introduced into a 24-well plate containing PBMC and pDC h Control wells are treated with DMSO. Cells are incubated for either one or two hours at 37° C. At the indicated times the cells are harvested by gently pipeting the cells into a 1.5 mL Eppendorf tube and centrifuging at 400 RCF for 10 min at 4° C. The supernatant is removed from the tube and the cells are lysed with 1 mL TRIzol (Life Technologies). […] RNA is quantified by absorbency (Abs260) and is reverse-transcribed using SuperScript First Strand Synthesis System for RT-PCR (Life Technologies). Primers for quantitative PCR are generated using Primer Express (PE Applied Biosystems). […] Quantitative PCR is performed on an ABI PRISM 7700 Sequence Detector. Amplified products are detected using SYBR Green PCR Master Mix (PE Biosystems). […] Relative quantitation of gene expression was performed using the DDCt method (User Bulletin #2, PE Applied Systems).
Cytokine and chemokine protein levels are measured from tissue culture supernatants or cell extracts using commercially-available enzyme-linked immuno assay (ELISA) kits. […]

Regarding `CC(C)Cn1cnc2c(N)nc3ccccc3c21` [Imiquimod, 1-isobutyl-1H-imidazo[4,5,-C]quinolin-4-amine], the “time until improved appearance (reduction in the appearance of fine lines and wrinkles) is visible” value in data set [1] is reported as at most 4 weeks.

Take `CC1=C(/C=C/C(C)=C/C=C/C(C)=C/C(=O)O)C(C)(C)CCC1` [tretinoin, all-trans retinoic acid]: in data set [2], the “Irritation (erythema and scaling)” value is “at all time points but maximally at the 2 and 4 week time points”; the “TEWL (Tewameter)” value is listed as “increased TEWL”. In data set [3], the “Irritation (erythema and scaling)” value was “at all time points but maximally at the 2 and 4 week time points”; the “TEWL (Tewameter)” value is “increased TEWL”. Also, the “amount of IFN-γ expressed by PBMC cells upon exposure to the TLR-7 agonist” value in data set [4] was “lowers”.
